Results on 28 molecules are retold here after patent US20240083857A1, “2-Methyl-Quinazolines” (Bayer Pharma Aktiengesellschaft, priority 2017, published 2024).

The target of test [1] is human SOS1 (loading of human K-Ras^G12C-GDP with fluorescent GTP-analog) (Homo sapiens, UniProt Q07889). The test is described as follows: Biochemical assay 3: K-Ras^G12C activation assay by hSOS1 (HTRF). As to conditions: no GTP; for IC50: read-out: Assay 3 (KRAS-Activation by SOS no GTP) activity expressed as IC50; for inhibition at 20 µM: read-out: Assay 3 (KRAS-Activation by SOS no GTP) activity expressed as % inhibition at 20 μM.

The target of test [2] is human SOS1 (nucleotide exchange of K-Ras^G12C) (Homo sapiens, UniProt Q07889). Briefly: Biochemical assay 2: K-Ras^G12C activation assay by hSOS1 at high GTP concentration (HTRF). As to conditions: high GTP; read-out: Assay 2 (KRAS-Activation by SOS high GTP) activity expressed as IC50. For orientation: In TR-FRET formats the signal depends on donor and acceptor labels being close together.

The IC50 is the midpoint of a concentration-inhibition curve. On to `COc1cc2nc(C)nc(NC(C)c3ccc(-c4ccc(F)cc4CNC(=O)c4cc[nH]n4)s3)c2cc1OC` (centres unmarked) [Example 310, N-[2-(5-{1-[(6,7-dimethoxy-2-methylquinazolin-4-yl)amino]ethyl}thiophen-2-yl)-5-fluorobenzyl]-1H-pyrazole-3-carboxamide], for which the IC50 is 5.76 µM in test [1] and 1.34 µM in test [2].

On to `COc1cc2nc(C)nc(NC(C)c3cncc4sccc34)c2cc1OC` (centres unmarked) [Example 332, 6,7-dimethoxy-2-methyl-N-[1-(thieno[2,3-c]pyridin-4-yl)ethyl]quinazolin-4-amine], for which the concentration for half-maximal inhibition (IC50) in test [1] turned out to be 11.4 µM; in test [2], 2.62 µM.

`COc1cc2nc(C)nc(N[C@H](C)c3cccc(-c4ccc(F)cc4CN)c3)c2cc1OC` [Example 274, N-{(1R)-1-[2′-(aminomethyl)-4′-fluorobiphenyl-3-yl]ethyl}-6,7-dimethoxy-2-methylquinazolin-4-amine]: the IC50 in test [1] is 0.214 µM; in test [2] it was 0.141 µM.

For `COc1cc2nc(C)nc(NC(C)c3ccc(-c4ccccc4CNCCO)s3)c2cc1OC` (centres unmarked) [Example 297, 2-{[2-(5-{1-[(6,7-dimethoxy-2-methylquinazolin-4-yl)amino]ethyl}thiophen-2-yl)benzyl]amino}ethanol], the IC50 in test [1] is 0.0606 µM; in test [2] it was 0.0578 µM.

As for `COc1cc2nc(C)nc(NC(C)c3ccc(-c4ccccc4C(C)=O)s3)c2cc1OC` (centres unmarked) [Example 324, 1-[2-(5-{1-[(6,7-dimethoxy-2-methylquinazolin-4-yl)amino]ethyl}thiophen-2-yl)phenyl]ethanone], the IC50 in test [1] stood at 6.84 µM; in test [2], 3.38 µM.

As usually defined, the inhibition is how much of the control response was suppressed. As to `COc1cc2nc(C)nc(NC(C)c3ccc4c(c3)OCCO4)c2cc1OC` (centres unmarked) [Example 19, N-[1-(2,3-dihydro-1,4-benzodioxin-6-yl)ethyl]-6,7-dimethoxy-2-methylquinazolin-4-amine], the inhibition at 20 µM in test [1] was determined as 44%. Further, the IC50 in test [2] came to 6.55 µM.

For the molecule `COc1cc2nc(C)nc(NC(C)c3cc(-c4ccn(CCN5CCCC5)n4)cs3)c2cc1OC` (centres unmarked) [Example 267, 6,7-dimethoxy-2-methyl-N-[1-(4-{1-[2-(pyrrolidin-1-yl)ethyl]-1H-pyrazol-3-yl}thiophen-2-yl)ethyl]quinazolin-4-amine], the IC50 in test [1] came out at 1.78 µM; in test [2], 1.52 µM.

In the case of `COc1cc2nc(C)nc(NC(C)c3ccc(-c4ccc(F)cc4CNC(=O)c4cnc[nH]4)s3)c2cc1OC` (centres unmarked) [Example 294, N-[2-(5-{1-[(6,7-dimethoxy-2-methylquinazolin-4-yl)amino]ethyl}thiophen-2-yl)-5-fluorobenzyl]-1H-imidazole-5-carboxamide], the IC50 in test [1] amounted to 8.58 µM; in test [2], 3.93 µM.

For the molecule `COc1cc2nc(C)nc(NC(C)c3ccc(-c4ccc(F)cc4CNC(=O)CNc4ccccc4)s3)c2cc1OC` (centres unmarked) [Example 299, N-[2-(5-{1-[(6,7-dimethoxy-2-methylquinazolin-4-yl)amino]ethyl}thiophen-2-yl)-5-fluorobenzyl]-N^2-phenylglycinamide], the IC50 stood at 1.88 µM in test [1] and 1.23 µM in test [2].

Turning to `COc1cc2nc(C)nc(NC(C)c3c(F)ccc4[nH]ncc34)c2cc1OC` (centres unmarked) [Example 18, N-[1-(5-fluoro-1H-indazol-4-yl)ethyl]-6,7-dimethoxy-2-methylquinazolin-4-amine], the IC50 in test [1] was determined as 10.5 µM; in test [2] it was 7.68 µM.

Regarding `CNCc1ccccc1-c1cccc([C@@H](C)Nc2nc(C)nc3cc(OC)c(OC)cc23)c1` [Example 268, 6,7-dimethoxy-2-methyl-N-[(1R)-1-{2′-[(methylamino)methyl]biphenyl-3-yl}ethyl]quinazolin-4-amine], the results for the IC50 in test [1] and in test [2] were 0.189 µM and 0.151 µM, respectively.

For `COc1cc2nc(C)nc(NC(C)c3ccc(-c4cnc5n4CCC5)s3)c2cc1OC` (single isomer, unassigned; enantiomer 2) [Example 329, N-{1-[5-(6,7-dihydro-5H-pyrrolo[1,2-a]imidazol-3-yl)thiophen-2-yl]ethyl}-6,7-dimethoxy-2-methylquinazolin-4-amine, Enantiomer 2], the IC50 was 10.6 µM in test [1] and 6.47 µM in test [2].

As to `COc1cc2nc(C)nc(NC(C)c3ccc(-c4ccccc4CN4CC(N(C)C)C4)s3)c2cc1OC` (centres unmarked) [Example 319, N-{1-[5-(2-{[3-(dimethylamino)azetidin-1-yl]methyl}phenyl)thiophen-2-yl]ethyl}-6,7-dimethoxy-2-methylquinazolin-4-amine], the IC50 was determined as 0.127 µM in test [1] and 0.119 µM in test [2].

Regarding `COc1cc2nc(C)nc(NC(C)c3ccc(-c4ccc(F)cc4CNC(=O)[C@H]4CCCN4)s3)c2cc1OC` (stereo in doubt) [Example 316, N-[2-(5-{1-[(6,7-dimethoxy-2-methylquinazolin-4-yl)amino]ethyl}thiophen-2-yl)-5-fluorobenzyl]-prolinamide], the IC50 is 0.308 µM in test [1] and 0.284 µM in test [2].

Regarding `COc1cc2nc(C)nc(NC(C)c3ccc(-c4cc(C)n(C)c4C#N)s3)c2cc1OC` (centres unmarked) [Example 286, 3-(5-{1-[(6,7-dimethoxy-2-methylquinazolin-4-yl)amino]ethyl}thiophen-2-yl)-1,5-dimethyl-1H-pyrrole-2-carbonitrile], the inhibition at 20 µM in test [1] turned out to be 36%. Moreover, in test [2], the IC50 is 17.4 µM.

As for `COc1cc2nc(C)nc(NC(C)c3ccc(-c4ccccc4CN4CC(F)C4)s3)c2cc1OC` (centres unmarked) [Example 322, N-[1-(5-{2-[(3-fluoroazetidin-1-yl)methyl]phenyl}thiophen-2-yl)ethyl]-6,7-dimethoxy-2-methylquinazolin-4-amine], the IC50 is 0.268 µM in test [1] and 0.247 µM in test [2].

For the molecule `COc1cc2nc(C)nc(N[C@H](C)c3cccc(CN)c3)c2cc1OC` [Example 260, N-{(1R)-1-[3-(aminomethyl)phenyl]ethyl}-6,7-dimethoxy-2-methylquinazolin-4-amine], the values for the IC50 in test [1] and in test [2] were 5.68 µM and 2.04 µM, respectively.

As for `COc1cc2nc(C)nc(N[C@H](C)c3cccc(-c4ccnn4C)c3)c2cc1OC` [Example 339, 6,7-dimethoxy-2-methyl-N-{(1R)-1-[3-(1-methyl-1H-pyrazol-5-yl)phenyl]ethyl}quinazolin-4-amine], the figures for the IC50 in test [1] and in test [2] were 1.99 µM and 1.38 µM, respectively.

Regarding `COc1cc2nc(C)nc(NC(C)c3ccc(-c4ccccc4CN(C)CCO)s3)c2cc1OC` (centres unmarked) [Example 298, 2-{[2-(5-{1-[(6,7-dimethoxy-2-methylquinazolin-4-yl)amino]ethyl}thiophen-2-yl)benzyl](methyl)amino}ethanol], the results for the IC50 in test [1] and in test [2] were 0.0588 µM and 0.0493 µM, respectively.

For `COc1cc2nc(C)nc(NC(C)c3ccc(-c4ccccc4OCCN4CCCC4)s3)c2cc1OC` (centres unmarked) [Example 325, 6,7-di methoxy-2-methyl-N-[1-(5-{2-[2-(pyrrolidin-1-yl)ethoxy]phenyl}thiophen-2-yl)ethyl]quinazolin-4-amine], the IC50 in test [1] stood at 0.438 µM; in test [2], 0.443 µM.

As for `COc1cc2nc(C)nc(NC(C)c3ccc(-c4ccccc4CN4CC5(CNC(=O)N5)C4)s3)c2cc1OC` (centres unmarked) [Example 313, 2-[2-(5-{1-[(6,7-dimethoxy-2-methylquinazolin-4-yl)amino]ethyl}thiophen-2-yl)benzyl]-2,5,7-triazaspiro[3.4]octan-6-one], the values for the IC50 in test [1] and in test [2] were 0.15 µM and 0.162 µM, respectively.

As for `COc1cc2nc(C)nc(NC(C)c3cc(-c4cnc5n4CCC5)cs3)c2cc1OC` (centres unmarked) [Example 272, N-{1-[4-(6,7-dihydro-5H-pyrrolo[1,2-a]imidazol-3-yl)thiophen-2-yl]ethyl}-6,7-dimethoxy-2-methylquinazolin-4-amine], the IC50 in test [1] came to 2.5 µM; in test [2], 1.5 µM.

Take `COc1cc2nc(C)nc(NC(C)c3cccc4sc(C)cc34)c2cc1OC` (centres unmarked) [Example 330, 6,7-dimethoxy-2-methyl-N-[1-(2-methyl-1-benzothiophen-4-yl)ethyl]quinazolin-4-amine]: the IC50 in test [1] was determined as 0.547 µM; in test [2], 0.365 µM.

Take `COc1cc2nc(C)nc(NC(C)c3ccc(-c4ccccc4CN4CC(F)(F)C4)s3)c2cc1OC` (centres unmarked) [Example 320, N-[1-(5-{2-[(3,3-difluoroazetidin-1-yl)methyl]phenyl}thiophen-2-yl)ethyl]-6,7-dimethoxy-2-methylquinazolin-4-amine]: the values for the IC50 in test [1] and in test [2] were 3.49 µM and 1.3 µM, respectively.

`COc1cc2nc(C)nc(N[C@H](C)c3cccc(-c4cnc5n4CCC5)c3)c2cc1OC` [Example 261, N-{(1R)-1-[3-(6,7-dihydro-5H-pyrrolo[1,2-a]imidazol-3-yl)phenyl]ethyl}-6,7-dimethoxy-2-methylquinazolin-4-amine]: the values for the IC50 in test [1] and in test [2] were 1.1 µM and 0.873 µM, respectively.

In the case of `COc1cc2nc(C)nc(NC(C)c3cccc(OC)c3OC)c2cc1OC` (centres unmarked) [Example 21, N-[1-(2,3-dimethoxyphenyl)ethyl]-6,7-dimethoxy-2-methylquinazolin-4-amine], the IC50 in test [1] amounted to 11.1 µM; in test [2], 3.23 µM.

As for `COc1cc2nc(C)nc(N[C@H](C)c3cccc(-c4cnn(C)c4)c3)c2cc1OC` [Example 338, 6,7-dimethoxy-2-methyl-N-{(1R)-1-[3-(1-methyl-1H-pyrazol-4-yl)phenyl]ethyl}quinazolin-4-amine], the half-inhibitory concentration (IC50) in test [1] was 1.39 µM; in test [2] it was 0.838 µM.

As for `COc1cc2nc(C)nc(NC(C)c3cccc4scnc34)c2cc1OC` (centres unmarked) [Example 14, N-[1-(1,3-benzothiazol-4-yl)ethyl]-6,7-dimethoxy-2-methylquinazolin-4-amine], the IC50 in test [1] was found to be 1.83 µM; in test [2], 0.608 µM.
